According to US20070275977A1, “N-OXIDES OF PYRIDYLMETHYL -PIPERAZINE AND -PIPERIDINE DERIVATIVES” (priority 2006, published 2007):

Legend:
Histamine-H1 = Histamine-H1 (Homo sapiens, UniProt P35367); assay: In vitro receptor affinity, Histamine-H1; format: binding; conditions: radioligand [3H]-pyrilamine, read-out: K1 (in vitro receptor affinity)
Protocol: (§1) ln vitro affinity for neurotransmitter receptors: The binding data collected below were either obtained by CE REP (128, rue Danton, 92500 Rueil-Malmaison, France) or at Solvay Pharmaceuticals B.V. (C. J. van Houtenlaan 36, 1381 CP Weesp, The Netherlands), using well documented standard procedures. The affinities for dopamine-D2 and 5-HT1A receptors for instance, were measured as described by Creese (1997) and Gozlan (1983) respectively.

[1] = Partition coefficient, experimental (Log P); format: physicochemical; conditions: at pH 7.0
Lower lip retraction = assay: Lower lip retraction; format: in vivo; conditions: po; read-out: Lower Lip Retraction: ED50
Protocol: (§2) For oral (p.o.) administration: to the desired quantity (0.5-5 mg) of the solid test compound in a glass tube, some glass beads were added and the solid was milled by vortexing for 2 minutes. After addition of 1 ml of a solution of 1% methylcellulose in water and 2% (v/v) of Poloxamer 188 (Lutrol F68), the compound was suspended by vortexing for 10 minutes. The pH was adjusted to 7. Remaining particles in the suspension were further suspended by using an ultrasonic bath.
(§3) Lower lip retraction, an in vivo animal model for serotonin 5-HT1A receptor agonistic activity, was measured according to the method described by Berendsen (1989); Apomorphine-induced climbing behaviour in mice, an in vivo animal model for dopamine-D2 receptor antagonistic activity, was determined according to the method described by Costall (1978).

Serotonin-5-HT4 = Serotonin-5-HT4 (Homo sapiens, UniProt Q13639); assay: In vitro receptor affinity, Serotonin-5-HT4; format: binding; conditions: radioligand [3H]-GR 113808, read-out: K1 (in vitro receptor affinity)
Serotonin-5-HT4, sequence (Q13639 whole entry): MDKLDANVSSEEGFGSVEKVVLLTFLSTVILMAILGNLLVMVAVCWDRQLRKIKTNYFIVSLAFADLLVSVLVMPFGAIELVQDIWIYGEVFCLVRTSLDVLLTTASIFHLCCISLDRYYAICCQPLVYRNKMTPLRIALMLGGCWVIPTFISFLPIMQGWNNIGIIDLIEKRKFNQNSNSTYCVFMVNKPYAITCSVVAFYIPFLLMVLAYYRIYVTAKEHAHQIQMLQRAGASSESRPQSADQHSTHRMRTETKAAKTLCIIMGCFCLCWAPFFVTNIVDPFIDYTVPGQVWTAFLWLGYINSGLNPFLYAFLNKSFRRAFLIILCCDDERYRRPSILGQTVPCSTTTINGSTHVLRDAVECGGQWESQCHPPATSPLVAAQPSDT
Protocol: as §1

μ-opiate = μ-opiate (Rattus norvegicus, UniProt P33535); assay: In vitro receptor affinity, μ-opiate; format: binding; conditions: radioligand [3H]-DAMGO, read-out: K1 (in vitro receptor affinity)
Protocol: as §1

[2] = Volume of distribution measured in mice; format: in vivo; conditions: for VD in liters per kilograms: measured in mice; for Vd: plasma, calculated for an average person weighing 70 kg from mouse VD
Protocol: The volume of distribution (VD), also known as the ‘apparent volume of distribution’, is a pharmacological term used to quantify the distribution of a drug throughout the body after oral or parenteral dosing. It is defined as the volume in which the amount of drug would need to be uniformly distributed in to produce the observed concentration (Widmark, 1919).
The volume of distribution of SLV313 and its pyridine N-oxide was measured in mice, using the standard procedure well known in the art:
The volume of distribution is not a physiological volume, but rather the ratio between the total amount of drug in the body and its concentration in plasma. It is generally accepted that the volume of distribution is more or less the same across species, making it a parameter that, when measured in laboratory animals, has a high predictive value towards man.

[3] = test system: Apomorphine-induced climbing behaviour in mice; assay: Antagonism of apomorphine-induced climbing behaviour in mice; format: in vivo; conditions: Mus musculus, po, read-out: Antagon. apomorphine ind. climbing: ED50
Protocol: as §2, §3

Serotonin-5-HT7 = Serotonin-5-HT7 (Homo sapiens, UniProt P34969); assay: In vitro receptor affinity, Serotonin-5-HT7; format: binding; conditions: radioligand [3H]-LSD, read-out: K1 (in vitro receptor affinity)
Serotonin-5-HT7, sequence (P34969 whole entry): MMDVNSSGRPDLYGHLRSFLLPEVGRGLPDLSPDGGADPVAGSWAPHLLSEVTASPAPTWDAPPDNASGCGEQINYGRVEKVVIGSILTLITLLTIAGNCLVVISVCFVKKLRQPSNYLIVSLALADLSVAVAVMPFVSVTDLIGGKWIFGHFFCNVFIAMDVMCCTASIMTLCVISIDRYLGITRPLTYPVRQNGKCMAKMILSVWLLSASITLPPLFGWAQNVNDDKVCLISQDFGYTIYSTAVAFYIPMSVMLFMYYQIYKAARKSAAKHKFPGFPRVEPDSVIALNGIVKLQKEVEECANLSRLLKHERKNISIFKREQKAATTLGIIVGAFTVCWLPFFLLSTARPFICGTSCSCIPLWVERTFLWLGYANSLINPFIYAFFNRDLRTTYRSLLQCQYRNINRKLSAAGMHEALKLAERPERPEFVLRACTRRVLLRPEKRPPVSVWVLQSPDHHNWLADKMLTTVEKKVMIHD
Protocol: as §1

α2-adrenergic = assay: In vitro receptor affinity, α2-adrenergic; format: binding; conditions: rat, radioligand [3H]-RX 821002; read-out: K1 (in vitro receptor affinity)
Protocol: as §1

Serotonin-5-HT6 = Serotonin-5-HT6 (Homo sapiens, UniProt P50406); assay: In vitro receptor affinity, Serotonin-5-HT6; format: binding; conditions: radioligand [3H]-LSD, read-out: K1 (in vitro receptor affinity)
Serotonin-5-HT6, sequence (P50406 whole entry): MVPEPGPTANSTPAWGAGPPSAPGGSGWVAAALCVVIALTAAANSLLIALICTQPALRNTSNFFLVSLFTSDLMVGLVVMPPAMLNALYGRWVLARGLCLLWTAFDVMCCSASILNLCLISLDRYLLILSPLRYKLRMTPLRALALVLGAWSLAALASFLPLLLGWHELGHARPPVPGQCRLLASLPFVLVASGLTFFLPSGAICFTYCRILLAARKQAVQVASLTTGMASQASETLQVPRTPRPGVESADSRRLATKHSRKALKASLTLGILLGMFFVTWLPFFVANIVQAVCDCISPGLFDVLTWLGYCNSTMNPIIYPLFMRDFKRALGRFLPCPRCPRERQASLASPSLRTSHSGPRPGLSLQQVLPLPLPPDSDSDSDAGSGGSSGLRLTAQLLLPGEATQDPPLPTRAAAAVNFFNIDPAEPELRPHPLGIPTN
Protocol: as §1

Muscarine-M5 = Muscarine-M5 (Homo sapiens, UniProt P08912); assay: In vitro receptor affinity, Muscarine-M5; format: binding; conditions: radioligand [3H]-4-DAMP, read-out: K1 (in vitro receptor affinity)
Muscarine-M5, sequence (P08912 whole entry): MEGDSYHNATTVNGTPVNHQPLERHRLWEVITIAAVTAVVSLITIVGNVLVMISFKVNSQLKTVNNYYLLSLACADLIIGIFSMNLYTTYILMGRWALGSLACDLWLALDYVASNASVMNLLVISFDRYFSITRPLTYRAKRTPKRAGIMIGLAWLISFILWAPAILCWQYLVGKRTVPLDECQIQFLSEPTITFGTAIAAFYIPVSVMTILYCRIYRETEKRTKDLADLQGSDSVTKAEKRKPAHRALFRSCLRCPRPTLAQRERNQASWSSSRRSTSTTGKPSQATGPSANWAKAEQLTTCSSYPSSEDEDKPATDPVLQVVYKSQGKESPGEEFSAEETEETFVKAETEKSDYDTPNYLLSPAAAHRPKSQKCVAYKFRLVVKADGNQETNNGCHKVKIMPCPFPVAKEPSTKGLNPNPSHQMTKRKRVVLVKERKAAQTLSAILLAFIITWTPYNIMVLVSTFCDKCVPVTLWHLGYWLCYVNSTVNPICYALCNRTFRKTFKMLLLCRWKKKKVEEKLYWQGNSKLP
Protocol: as §1

Muscarine-M1 = Muscarine-M1 (Homo sapiens, UniProt P11229); assay: In vitro receptor affinity, Muscarine-M1; format: binding; conditions: radioligand [3H]-pirenzepine, read-out: K1 (in vitro receptor affinity)
Muscarine-M1, sequence (P11229 whole entry): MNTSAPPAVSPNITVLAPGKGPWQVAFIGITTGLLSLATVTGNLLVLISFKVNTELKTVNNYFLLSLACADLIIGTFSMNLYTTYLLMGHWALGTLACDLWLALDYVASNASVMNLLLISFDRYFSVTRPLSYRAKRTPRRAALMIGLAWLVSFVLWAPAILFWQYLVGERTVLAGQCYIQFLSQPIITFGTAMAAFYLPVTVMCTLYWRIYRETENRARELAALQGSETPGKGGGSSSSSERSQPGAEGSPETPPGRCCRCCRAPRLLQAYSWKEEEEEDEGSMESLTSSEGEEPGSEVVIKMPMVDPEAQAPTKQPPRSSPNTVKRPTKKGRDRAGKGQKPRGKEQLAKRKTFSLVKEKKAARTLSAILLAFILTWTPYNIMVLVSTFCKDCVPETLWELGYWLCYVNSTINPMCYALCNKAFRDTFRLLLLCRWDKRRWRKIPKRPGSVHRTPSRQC
Protocol: as §1

Muscarine-M4 = Muscarine-M4 (Homo sapiens, UniProt P08173); assay: In vitro receptor affinity, Muscarine-M4; format: binding; conditions: radioligand [3H]-4-DAMP, read-out: K1 (in vitro receptor affinity)
Muscarine-M4, sequence (P08173 whole entry): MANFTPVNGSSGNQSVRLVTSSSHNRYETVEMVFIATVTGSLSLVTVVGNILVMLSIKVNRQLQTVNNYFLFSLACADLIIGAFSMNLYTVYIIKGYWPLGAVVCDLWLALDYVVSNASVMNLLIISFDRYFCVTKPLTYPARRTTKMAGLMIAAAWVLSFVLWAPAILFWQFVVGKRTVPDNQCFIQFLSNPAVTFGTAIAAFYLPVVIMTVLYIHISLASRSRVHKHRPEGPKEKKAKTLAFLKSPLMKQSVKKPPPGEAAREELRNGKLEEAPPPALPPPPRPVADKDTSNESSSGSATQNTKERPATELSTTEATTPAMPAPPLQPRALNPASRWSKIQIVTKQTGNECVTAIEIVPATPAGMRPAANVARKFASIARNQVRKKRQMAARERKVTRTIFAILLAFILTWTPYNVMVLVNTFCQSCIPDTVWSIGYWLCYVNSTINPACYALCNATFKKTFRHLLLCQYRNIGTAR
Protocol: as §1

human 5-HT1A receptors = target: T1, human 5-HT1A receptors (Homo sapiens, UniProt P08908); assay: In vitro functional agonism at 5-HT1A receptors, adenylate cyclase in CHO cell-lines; format: cell-based; conditions: CHO cell-lines expressing cloned receptor; read-out: Agonism human 5-HT1A receptors, pEC50 (converted)
T1 construct: expressed in transfected cells; host or cells: CHO
Protocol: (§4) In vitro (ant)agonistic activity at human D2 receptors and 5-HT1A receptors was measured according to the methods described by Solomon (1974) and Weiss (1985) respectively, on the formation of adenylate cyclase in CHO cell-lines expressing these cloned receptors.

Serotonin-5-HT2A = Serotonin-5-HT2A (Homo sapiens, UniProt P28223); assay: In vitro receptor affinity, Serotonin-5-HT2A; format: binding; conditions: radioligand [3H]-ketanserin, read-out: K1 (in vitro receptor affinity)
Serotonin-5-HT2A, sequence (P28223 whole entry): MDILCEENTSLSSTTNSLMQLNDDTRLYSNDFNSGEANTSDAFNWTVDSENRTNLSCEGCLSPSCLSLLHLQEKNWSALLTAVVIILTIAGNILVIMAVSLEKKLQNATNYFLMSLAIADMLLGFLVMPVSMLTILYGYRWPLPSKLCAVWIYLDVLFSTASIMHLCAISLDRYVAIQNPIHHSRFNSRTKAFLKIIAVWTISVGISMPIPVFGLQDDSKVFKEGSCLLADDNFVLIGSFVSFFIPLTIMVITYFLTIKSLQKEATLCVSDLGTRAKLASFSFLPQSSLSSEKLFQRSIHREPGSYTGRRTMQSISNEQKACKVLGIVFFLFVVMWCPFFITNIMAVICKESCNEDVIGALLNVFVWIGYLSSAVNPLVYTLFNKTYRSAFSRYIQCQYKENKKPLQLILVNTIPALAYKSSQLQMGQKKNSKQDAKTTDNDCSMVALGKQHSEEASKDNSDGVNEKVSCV
Protocol: as §1

Dopamine-D4 = Dopamine-D4 (Homo sapiens, UniProt P21917); assay: In vitro receptor affinity, Dopamine-D4; format: binding; conditions: radioligand [3H]-spiperone, read-out: K1 (in vitro receptor affinity)
Dopamine-D4, sequence (P21917 whole entry): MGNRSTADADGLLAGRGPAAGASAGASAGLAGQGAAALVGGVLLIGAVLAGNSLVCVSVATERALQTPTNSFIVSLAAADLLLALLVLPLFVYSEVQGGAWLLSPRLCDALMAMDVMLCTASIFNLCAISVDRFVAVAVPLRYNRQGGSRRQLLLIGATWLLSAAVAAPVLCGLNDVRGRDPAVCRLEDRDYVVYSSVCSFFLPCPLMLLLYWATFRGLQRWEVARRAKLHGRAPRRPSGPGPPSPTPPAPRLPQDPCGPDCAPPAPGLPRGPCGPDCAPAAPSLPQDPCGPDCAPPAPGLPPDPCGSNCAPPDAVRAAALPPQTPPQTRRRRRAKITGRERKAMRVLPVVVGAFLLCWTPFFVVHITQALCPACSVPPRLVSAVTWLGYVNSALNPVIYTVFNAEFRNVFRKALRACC
Protocol: as §1

human D2 receptors = target: T2, human D2 receptors (Homo sapiens, UniProt P14416); assay: In vitro functional antagonism at D2 receptors, adenylate cyclase in CHO cell-lines; format: cell-based; conditions: CHO cell-lines expressing cloned receptor; read-out: Antagonism human D2 receptors, pA2 (converted)
T2 construct: expressed in transfected cells; host or cells: CHO
T2 sequence (P14416 whole entry): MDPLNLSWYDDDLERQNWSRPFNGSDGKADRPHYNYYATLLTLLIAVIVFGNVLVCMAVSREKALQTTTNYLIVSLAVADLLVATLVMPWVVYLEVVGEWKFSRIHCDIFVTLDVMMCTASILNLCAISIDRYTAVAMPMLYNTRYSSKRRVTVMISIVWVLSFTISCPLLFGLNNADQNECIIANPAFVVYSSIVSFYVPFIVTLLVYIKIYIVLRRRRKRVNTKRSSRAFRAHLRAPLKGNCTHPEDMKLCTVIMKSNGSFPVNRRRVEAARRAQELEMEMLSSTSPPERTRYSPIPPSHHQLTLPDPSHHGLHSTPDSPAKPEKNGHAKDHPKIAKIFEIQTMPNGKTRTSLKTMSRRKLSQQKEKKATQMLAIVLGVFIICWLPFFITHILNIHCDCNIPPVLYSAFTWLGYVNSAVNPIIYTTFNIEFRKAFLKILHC
Protocol: as §4

Serotonin-5-HT1A = target: T3, Serotonin-5-HT1A (Homo sapiens, UniProt P08908); assay: In vitro receptor affinity, Serotonin-5-HT1A; format: binding; conditions: radioligand [3H]-8-OH-DPAT, read-out: K1 (in vitro receptor affinity)
T3 sequence (P08908 1-422): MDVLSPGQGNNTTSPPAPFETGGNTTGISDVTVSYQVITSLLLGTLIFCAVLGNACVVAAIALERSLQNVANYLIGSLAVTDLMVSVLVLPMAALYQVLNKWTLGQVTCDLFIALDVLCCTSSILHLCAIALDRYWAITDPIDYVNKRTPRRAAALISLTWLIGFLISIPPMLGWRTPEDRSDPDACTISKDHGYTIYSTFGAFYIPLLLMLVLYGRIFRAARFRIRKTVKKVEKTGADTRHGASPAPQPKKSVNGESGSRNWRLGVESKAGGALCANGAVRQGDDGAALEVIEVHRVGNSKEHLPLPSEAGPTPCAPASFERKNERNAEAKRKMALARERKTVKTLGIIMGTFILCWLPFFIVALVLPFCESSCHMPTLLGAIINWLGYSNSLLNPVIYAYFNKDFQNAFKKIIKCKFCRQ
Protocol: as §1

Histamine-H1, sequence (P35367 whole entry): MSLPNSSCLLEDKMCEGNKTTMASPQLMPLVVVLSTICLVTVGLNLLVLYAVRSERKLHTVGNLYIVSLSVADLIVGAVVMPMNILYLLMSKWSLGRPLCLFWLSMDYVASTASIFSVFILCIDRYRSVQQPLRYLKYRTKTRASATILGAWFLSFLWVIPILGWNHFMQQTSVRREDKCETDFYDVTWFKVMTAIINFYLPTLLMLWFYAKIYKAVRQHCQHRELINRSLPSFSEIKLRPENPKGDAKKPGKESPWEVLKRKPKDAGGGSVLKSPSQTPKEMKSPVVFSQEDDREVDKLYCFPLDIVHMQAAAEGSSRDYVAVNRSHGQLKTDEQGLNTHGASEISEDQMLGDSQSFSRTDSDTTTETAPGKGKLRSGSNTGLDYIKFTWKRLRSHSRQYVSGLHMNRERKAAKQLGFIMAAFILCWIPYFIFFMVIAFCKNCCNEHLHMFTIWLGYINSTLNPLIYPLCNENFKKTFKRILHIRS

Row | Structure (SMILES) | Ki (Histamine-H1) [µM] | logP [1] | ED50 (Lower lip retraction) [mg/kg] | Ki (Serotonin-5-HT4) [µM] | Ki (μ-opiate) [µM] | VD in liters per kilograms [2] [liters per kilograms] | Vd [2] [L] | ED50 [3] [mg/kg] | Ki (Serotonin-5-HT7) [µM] | Ki (α2-adrenergic) [µM] | Ki (Serotonin-5-HT6) [µM] | Ki (Muscarine-M5) [µM] | Ki (Muscarine-M1) [µM] | Ki (Muscarine-M4) [µM] | EC50 (human 5-HT1A receptors) [µM] | Ki (Serotonin-5-HT2A) [µM] | Ki (Dopamine-D4) [µM] | Kb (human D2 receptors) [µM] | Ki (Serotonin-5-HT1A) [µM]
1 | [O-][n+]1cc(CN2CCN(c3cccc4c3OCCO4)CC2)cc(-c2ccc(F)cc2)c1 [pyridine N-oxide, 1-(2,3-dihydro-1,4-benzodioxin-5-yl)-4-[[5-(4-fluorophenyl)-1-oxido-3-pyridinyl]methyl]-piperazine] | > 10 | 2.6 | 3 | > 10 | 3.2 | 1 | 70 | 0.9 | 0.1 | 0.63 | > 10 | > 10 | > 10 | > 10 | 0.00158 | 0.5 | 0.02 | 0.000631 | 0.0004
2 | Fc1ccc(-c2cncc(CN3CCN(c4cccc5c4OCCO5)CC3)c2)cc1 [SLV313, 3-[[4-(2,3-dihydro-1,4-benzodioxin-5-yl)-1-piperazinyl]methyl]-5-(4-fluorophenyl)pyridine, reference compound] | > 1 | 3.6 | 2.3 | > 1 | 8 | 5 | 350 | 0.5 | 0.063 | > 1 | > 1 | > 1 | > 10 | > 1 | 0.00126 | 0.25 | 0.01 | 0.000501 | 0.0008
